In ChEMBL document CHEMBL3769318, “The Rational Design of Selective Benzoxazepin Inhibitors of the α-Isoform of Phosphoinositide 3-Kinase Culminating in the Identification of (S)-2-((2-(1-Isopropyl-1H-1,2,4-triazol-5-yl)-5,6-dihydrobenzo[f]imidazo[1,2-d][1,4]oxazepin-9-yl)oxy)propanamide (GDC-0326)” (J Med Chem, 2016):

Assays:
[1] = Antiproliferative activity against human MCF7-neo/Her2 cells after 3 days by luminescence plate reader method; type: functional, cell-based; conditions: 72 h
[2] = Antiproliferative activity against human PC3 cells after 4 days by luminescence plate reader method; type: functional, cell-based; conditions: PC-3, 96 h
[3] = molecular target: Phosphatidylinositol 4,5-bisphosphate 3-kinase catalytic subunit alpha isoform (Homo sapiens, UniProt P42336); test: Inhibition of recombinant PI3K alpha (unknown origin) using PIP2 as substrate by fluorescence polarization assay; conditions: read-out: Ki(app)
[4] = Clearance in Sprague-Dawley rat at 1 mg/kg, iv; type: ADME, organism-based; conditions: in vivo

Chain of Phosphatidylinositol 4,5-bisphosphate 3-kinase catalytic subunit alpha isoform (P42336 whole entry, canonical isoform): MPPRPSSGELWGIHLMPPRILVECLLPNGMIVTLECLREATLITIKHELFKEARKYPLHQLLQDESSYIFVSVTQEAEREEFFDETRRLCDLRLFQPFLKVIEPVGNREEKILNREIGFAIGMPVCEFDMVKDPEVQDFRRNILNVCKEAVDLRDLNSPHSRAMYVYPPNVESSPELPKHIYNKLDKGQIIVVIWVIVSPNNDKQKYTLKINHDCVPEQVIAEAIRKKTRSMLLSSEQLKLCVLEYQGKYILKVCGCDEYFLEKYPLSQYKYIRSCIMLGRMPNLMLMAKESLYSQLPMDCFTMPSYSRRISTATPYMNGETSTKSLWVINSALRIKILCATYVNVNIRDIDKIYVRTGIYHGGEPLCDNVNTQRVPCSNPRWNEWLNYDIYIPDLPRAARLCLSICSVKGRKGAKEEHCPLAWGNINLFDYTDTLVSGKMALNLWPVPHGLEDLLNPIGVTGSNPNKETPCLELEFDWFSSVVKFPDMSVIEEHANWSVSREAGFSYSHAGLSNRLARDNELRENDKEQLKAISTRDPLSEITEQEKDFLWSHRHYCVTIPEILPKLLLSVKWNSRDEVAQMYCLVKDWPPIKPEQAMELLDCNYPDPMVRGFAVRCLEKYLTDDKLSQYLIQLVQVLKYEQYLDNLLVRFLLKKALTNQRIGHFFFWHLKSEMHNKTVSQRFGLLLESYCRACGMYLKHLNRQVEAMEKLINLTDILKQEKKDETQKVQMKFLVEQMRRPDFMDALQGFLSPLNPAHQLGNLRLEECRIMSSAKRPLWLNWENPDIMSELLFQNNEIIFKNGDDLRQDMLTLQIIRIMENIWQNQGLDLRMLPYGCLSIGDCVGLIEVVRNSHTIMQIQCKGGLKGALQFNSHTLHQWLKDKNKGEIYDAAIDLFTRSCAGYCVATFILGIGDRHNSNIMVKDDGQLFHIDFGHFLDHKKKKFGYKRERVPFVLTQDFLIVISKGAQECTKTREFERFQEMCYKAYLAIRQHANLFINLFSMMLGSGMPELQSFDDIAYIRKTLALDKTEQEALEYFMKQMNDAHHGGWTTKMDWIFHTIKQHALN

SMILES	Ki [3] [nM]	clearance [4] [mL/min/kg]	EC50 [1] [nM]	EC50 [2] [nM]
CC(C)n1ncnc1-c1cn2c(n1)-c1cnc(N)cc1OCC2	1.2	–	–	–
CC(C)n1ncnc1-c1cn2c(n1)-c1cnc(O[C@@H](C)C(N)=O)cc1OCC2	1	62	–	–
CC(C)n1ncnc1-c1cn2c(n1)-c1ccc(O[C@H](C)C(N)=O)cc1OCC2	–	–	1000	4600

Further lines, with some results ahead:

Ki [3] [nM]	clearance [4] [mL/min/kg]	SMILES	EC50 [1] [nM]	EC50 [2] [nM]
0.3	–	CC(C)n1ncnc1-c1cn2c(n1)-c1ccc(N3CCCC[C@H]3C(N)=O)cc1OCC2	30	870
0.2	–	CC(C)n1ncnc1-c1cn2c(n1)-c1cnc(N(C)CC(N)=O)cc1OCC2	–	–
